Data: patent US20230373930A1, “AMINOIMIDAZOLE FPR2 AGONISTS” (BRISTOL-MYERS SQUIBB COMPANY, priority 2020, published 2023)

Key:
human FPR2 = target: T1, human FPR2 (Homo sapiens, UniProt P25090); test: FPR2 cyclic adenosine monophosphate (cAMP) assay; format: cell-based; settings: CHO cells overexpressing human FPR2; forskolin 5 μM; inhibition of cAMP production; HTRF; read-out: hFPR2 cAMP2 EC50
T1 sequence (P25090 1-351): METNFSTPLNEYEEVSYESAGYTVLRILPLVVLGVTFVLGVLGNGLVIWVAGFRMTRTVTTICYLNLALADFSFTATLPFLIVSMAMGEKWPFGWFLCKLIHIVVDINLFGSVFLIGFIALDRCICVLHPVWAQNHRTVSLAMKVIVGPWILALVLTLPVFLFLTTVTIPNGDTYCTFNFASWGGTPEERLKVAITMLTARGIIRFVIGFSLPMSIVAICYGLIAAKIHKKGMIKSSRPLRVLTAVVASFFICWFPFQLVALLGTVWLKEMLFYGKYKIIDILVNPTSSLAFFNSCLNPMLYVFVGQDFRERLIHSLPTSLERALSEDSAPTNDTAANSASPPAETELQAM
Description: (§1) FPR2 and FPR1 Cyclic Adenosine Monophosphate (cAMP) Assays. A mixture of forskolin (5 μM final for FPR2 or 10 μM final for FPR1) and IBMX (200 μM final) were added to 384-well Proxiplates (Perkin-Elmer) pre-dotted with test compounds in DMSO (1% final) at final concentrations in the range of 0.020 nM to 100 μM. Chinese Hamster Ovary cells (CHO) overexpressing human FPR1 or human FPR2 receptors were cultured in F-12 (Ham's) medium supplemented with 10% qualified FBS, 250 μg/ml zeocin and 300 μg/ml hygromycin (Life Technologies). Reactions were initiated by adding 2,000 human FPR2 cells per well or 4,000 human FPR1 cells per well in Dulbecco's PBS (with calcium and magnesium) (Life Technologies) supplemented with 0.1% BSA (Perkin-Elmer). The reaction mixtures were incubated for 30 min at room temperature. The level of intracellular cAMP was determined using the HTRF HiRange cAMP assay reagent kit (Cisbio) according to manufacturer's instruction. Solutions of cryptate conjugated anti-cAMP and d2 flurorophore-labelled cAMP were made in a supplied lysis buffer separately. Upon completion of the reaction, the cells were lysed with equal volume of the d2-cAMP solution and anti-cAMP solution. After a 1-h room temperature incubation, time-resolved fluorescence intensity was measured using the Envision (Perkin-Elmer) at 400 nm excitation and dual emission at 590 nm and 665 nm. A calibration curve was constructed with an external cAMP standard at concentrations ranging from 1 μM to 0.1 μM by plotting the fluorescent intensity ratio from 665 nm emission to the intensity from the 590 nm emission against cAMP concentrations. The potency and activity of a compound to inhibit cAMP production was then determined by fitting to a 4-parametric logistic equation from a plot of cAMP level versus compound concentrations.

human FPR1 = target: T2, human FPR1 (Homo sapiens, UniProt P21462); test: FPR1 cyclic adenosine monophosphate (cAMP) assay; format: cell-based; settings: CHO cells overexpressing human FPR1; forskolin 10 μM; inhibition of cAMP production; HTRF; read-out: hFPR1 cAMP2 EC50
T2 sequence (P21462 1-350): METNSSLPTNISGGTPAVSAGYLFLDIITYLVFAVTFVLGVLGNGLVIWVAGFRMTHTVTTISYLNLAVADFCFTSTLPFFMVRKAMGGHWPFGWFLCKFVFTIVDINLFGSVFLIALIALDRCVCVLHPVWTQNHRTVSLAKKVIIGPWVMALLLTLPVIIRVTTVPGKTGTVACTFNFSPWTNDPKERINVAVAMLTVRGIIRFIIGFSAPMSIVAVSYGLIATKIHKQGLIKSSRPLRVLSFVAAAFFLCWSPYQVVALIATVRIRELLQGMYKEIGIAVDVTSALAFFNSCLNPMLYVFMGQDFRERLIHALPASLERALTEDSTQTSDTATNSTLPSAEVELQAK
Description: as §1

EC50 (human FPR2) [nM]	EC50 (human FPR1) [nM]	SMILES
90	750	COc1cc(F)c(-n2cc(C(=O)NC3CCC(O)CC3)nc2NC(=O)c2ccc(OC(F)F)cc2)c(F)c1 (centres unmarked) [Example 49, 1-(2,6-Difluoro-4-methoxyphenyl)-2-[4-(difluoromethoxy)benzamido]-N-(4-hydroxycyclohexyl)-1H-imidazole-4-carboxamide]
77	> 10000	COc1cc(F)c(-n2cc(C(=O)N3CCC[C@H]3CO)nc2NC(=O)c2ccc(OC(F)F)cc2)c(F)c1 [Example 50, N-[1-(2,6-Difluoro-4-methoxyphenyl)-4-[(2S)-2-(hydroxymethyl)pyrrolidine-1-carbonyl]-1H-imidazol-2-yl]-4-(difluoromethoxy)benzamide]
83	2900	COc1cc(F)c(-n2cc(C(=O)N3CCCC(O)C3)nc2NC(=O)c2ccc(OC(F)F)cc2)c(F)c1 (centres unmarked) [Example 51, N-[1-(2,6-Difluoro-4-methoxyphenyl)-4-(3-hydroxypiperidine-1-carbonyl)-1H-imidazol-2-yl]-4-(difluoromethoxy)benzamide]
63	> 10000	COc1cc(F)c(-n2cc(C(=O)N3CCC(O)CC3)nc2NC(=O)c2ccc(OC(F)F)cc2)c(F)c1 [Example 52, N-[1-(2,6-Difluoro-4-methoxyphenyl)-4-(4-hydroxypiperidine-1-carbonyl)-1H-imidazol-2-yl]-4-(difluoromethoxy)benzamide]
130	4100	COc1cc(F)c(-n2cc(C(=O)NCCO)nc2NC(=O)c2ccc(OC(F)F)cc2)c(F)c1 [Example 53, 1-(2,6-Difluoro-4-methoxyphenyl)-2-[4-(difluoromethoxy)benzamido]-N-(2-hydroxyethyl)-1H-imidazole-4-carboxamide]
320	> 10000	COc1cc(F)c(-n2cc(C(=O)N3CCOCC3)nc2NC(=O)c2ccc(OC(F)F)cc2)c(F)c1 [Example 54, N-[1-(2,6-Difluoro-4-methoxyphenyl)-4-(morpholine-4-carbonyl)-1H-imidazol-2-yl]-4-(difluoromethoxy)benzamide]
280	> 10000	COc1cc(F)c(-n2cc(C(=O)N3CCN(C)CC3)nc2NC(=O)c2ccc(OC(F)F)cc2)c(F)c1 [Example 55, N-[1-(2,6-Difluoro-4-methoxyphenyl)-4-(4-methylpiperazine-1-carbonyl)-1H-imidazol-2-yl]-4-(difluoromethoxy)benzamide]
89	110	COc1cc(F)c(-n2cc(C(=O)NCc3cnc(C)cn3)nc2NC(=O)c2ccc(OC(F)F)cc2)c(F)c1 [Example 56, 1-(2,6-Difluoro-4-methoxyphenyl)-2-[4-(difluoromethoxy)benzamido]-N-[(5-methylpyrazin-2-yl)methyl]-1H-imidazole-4-carboxmaide]
120	1900	COc1cc(F)c(-n2cc(C(=O)N3CC[C@H](O)C3)nc2NC(=O)c2ccc(OC(F)F)cc2)c(F)c1 [Example 57, N-[1-(2,6-Difluoro-4-methoxyphenyl)-4-[(3S)-3-hydroxypyrrolidine-1-carbonyl]-1H-imidazol-2-yl]-4-(difluoromethoxy)benzamide]
170	3400	COc1cc(F)c(-n2cc(C(=O)N3CCNC(=O)C3)nc2NC(=O)c2ccc(OC(F)F)cc2)c(F)c1 [Example 58, N-[1-(2,6-Difluoro-4-methoxyphenyl)-4-(3-oxopiperazine-1-carbonyl)-1H-imidazol-2-yl]-4-(difluoromethoxy)benzamide]
82	2200	COc1cc(F)c(-n2cc(C(=O)N3CCC(CO)C3)nc2NC(=O)c2ccc(OC(F)F)cc2)c(F)c1 (centres unmarked) [Example 59, N-[1-(2,6-Difluoro-4-methoxyphenyl)-4-[3-(hydroxymethyl)pyrrolidine-1-carbonyl]-1H-imidazol-2-yl]-4-(difluoromethoxy)benzamide]
56	1400	COc1cc(F)c(-n2cc(C(=O)NCCCO)nc2NC(=O)c2ccc(OC(F)F)cc2)c(F)c1 [Example 60, 1-(2,6-Difluoro-4-methoxyphenyl)-2-[4-(difluoromethoxy)benzamido]-N-(3-hydroxypropyl)-1H-imidazole-4-carboxamide]
130	> 10000	COc1cc(F)c(-n2cc(C(=O)N3CCNCC3)nc2NC(=O)c2ccc(OC(F)F)cc2)c(F)c1 [Example 61, N-[1-(2,6-Difluoro-4-methoxyphenyl)-4-(piperazine-1-carbonyl)-1H-imidazol-2-yl]-4-(difluoromethoxy)benzamide]
32	830	COc1cc(F)c(-n2cc(C(=O)Nc3cn[nH]c3)nc2NC(=O)c2ccc(OC(F)F)cc2)c(F)c1 [Example 62, 1-(2,6-Difluoro-4-methoxyphenyl)-2-[4-(difluoromethoxy)benzamido]-N-(1H-pyrazol-4-yl)-1H-imidazole-4-carboxamide]
10	710	COc1cc(F)c(-n2cc(C3CCNCC3)nc2NC(=O)c2ccc(OC(F)F)cc2)c(F)c1 [Example 63, N-[1-(2,6-Difluoro-4-methoxyphenyl)-4-(piperidin-4-yl)-1H-imidazol-2-yl]-4-(difluoromethoxy)benzamide]
11	210	COc1ccc(-n2cc(C3CCCNC3)nc2NC(=O)c2ccc(OC(F)F)cc2)cc1 (centres unmarked) [Example 64, 4-(Difluoromethoxy)-N-[1-(4-methoxyphenyl)-4-(piperidin-3-yl)-1H-imidazol-2-yl]benzamide]
81	320	CCS(=O)(=O)N1CCC(c2cn(-c3c(F)cc(OC)cc3F)c(NC(=O)c3ccc(OC(F)F)cc3)n2)CC1 [Example 65, N-[1-(2,6-Difluoro-4-methoxyphenyl)-4-[1-(ethanesulfonyl)piperidin-4-yl]-1H-imidazol-2-yl]-4-(difluoromethoxy)benzamide]
28	540	CCNC(=O)N1CCC(c2cn(-c3c(F)cc(OC)cc3F)c(NC(=O)c3ccc(OC(F)F)cc3)n2)CC1 [Example 66, 4-[1-(2,6-Difluoro-4-methoxyphenyl)-2-[4-(difluoromethoxy)benzamido]-1H-imidazol-4-yl]-N-ethylpiperidine-1-carboxamide]
54	83	COc1cc(F)c(-n2cc(C3CCN(C(=O)CCC(N)=O)CC3)nc2NC(=O)c2ccc(OC(F)F)cc2)c(F)c1 [Example 67, N-{4-[1-(3-Carbamoylpropanoyl)piperidin-4-yl]-1-(2,6-difluoro-4-methoxyphenyl)-1H-imidazol-2-yl}-4-(difluoromethoxy)benzamide]
45	110	COc1cc(F)c(-n2cc(C3CCN(C(=O)CCO)CC3)nc2NC(=O)c2ccc(OC(F)F)cc2)c(F)c1 [Example 68, N-[1-(2,6-difluoro-4-methoxyphenyl)-4-[1-(3-hydroxypropanoyl)piperidin-4-yl]-1H-imidazol-2-yl]-4-(difluoromethoxy)benzamide]
86	2990	COc1cc(F)c(-n2cc(C(=O)N3CCC(CO)CC3)nc2NC(=O)c2ccc(OC(F)F)cc2)c(F)c1 [Example 69, N-[1-(2,6-difluoro-4-methoxyphenyl)-4-[4-(hydroxymethyl)piperidine-1-carbonyl]-1H-imidazol-2-yl]-4-(difluoromethoxy)benzamide]
31	970	COc1cc(F)c(-n2cc(C(C)C)nc2NC(=O)c2ccc(OC(F)F)cc2)c(F)c1 [Example 70, N-(1-(2,6-Difluoro-4-methoxyphenyl)-4-isopropyl-1H-imidazol-2-yl)-4-(difluoromethoxy)benzamide]
